{"source": "patent US10399966B2", "about": "“Compounds for treatment of trypanosomes and neurological pathogens and uses thereof” (The University of North Carolina at Chapel Hill, priority 2016, dated 2019)", "key": {"[1]": {"assay": "Rat pharmacokinetics, intravenous administration", "type": "in vivo", "set-up": "AUC(0-inf): unit not given here", "settings": "5 mg/kg; for AUC(0-inf) / Cmax / half-life / clearance / Vd: rat, iv; for Cmax / half-life / clearance / Vd: plasma", "description": "The pharmacokinetics of compound 1 was tested in rats after intravenous and oral administration. Two rats were administered 5 mg/kg compound 1 intravenously in a vehicle consisting of 7% Tween 80, 3% EtOH, 5% DMSO in saline. Two rats were administered 20 mg/kg compound 1 orally in a vehicle consisting of 5% DMSO, 0.5% Tween 80, 1% methylcellulose in water. The results are shown in Table 4 and FIGS. 3A-3B and 4A-4B."}, "[2]": {"assay": "Brain and plasma time-course after oral dosing", "type": "in vivo, mouse", "description": "The brain and plasma concentrations of compound 1 were studied in a time-course experiment following oral dosing at 50 mg/kg (Table 15). […] At 24 h, the plasma concentrations are undetectable and brain levels are down to sub-micromolar concentrations. Compared to the previous experiment (Table 14), the BPR ratio for 1 is lower at 1 h post-dose (1.48 vs. 4.0) probably due to the oral route of administration (as opposed to the ip route used before) leading to slower systemic absorption and distribution."}, "Leishmania amazonensis": {"system": "Leishmania amazonensis", "assay": "Antimicrobial activity against Leishmania amazonensis", "type": "cell-based", "settings": "Table 1, Leishmania amazonensis"}, "T. b. brucei TREU667": {"system": "T. b. brucei TREU667", "assay": "Mouse efficacy model of chronic T. brucei infection", "type": "in vivo", "settings": "50 mg/kg po b.i.d. x 10 days from day 21, no detectable parasitemia through 180 days post-infection, 50 mg/kg", "description": "For chronic efficacy, experiments were done in compliance with the University of Washington IACUC approved protocol. According to published procedures, groups of 5 mice were infected with 1×10^4 T. b. brucei (strain TREU667) at day 0 to establish a chronic infection. Treatment began on day 21 post-infection, and mice received 50 mg/kg test compound orally b.i.d. for 10 d (total of 20 doses) in a 200 μL volume of a vehicle composed of Phosal 53 MCT (60%), PEG400 (30%) and EtOH (10%). A control group received vehicle with no compound and another control group received a single intraperitoneal dose of diminazene aceturate at 10 mg/kg in water on day 21. […] Post dosing, parasitemia was monitored via microscopic examination of tail blood slides until 180 days post-infection. Mice were removed from the experiment once parasites were detected in the blood.\nIn a model of the chronic phase of HAT, compound 1 was administered to five mice infected with T. b. brucei TREU667 at 50 mg/kg/po b.i.d.×10 days, beginning 21 days post-infection. […] Efficacy PK blood samples were collected from three of the five mice prior to dose 15, and at 1 h and 6 h post-dose. […] Compound 1 attained 5/5 cures as determined by the absence of detectable parasitemia in any of the treated mice through 180 days post-infection (FIG. 2). […]"}, "[3]": {"assay": "Efficacy PK blood samples, acute model", "type": "in vivo, mouse", "settings": "50 mg/kg po b.i.d.", "description": "In a model of the acute phase of HAT, five mice infected with T. b. rhodesiense STIB900 were given the test compound at 50 mg/kg po b.i.d.×4 days, beginning 2 days post-infection. Efficacy PK blood samples were collected from three of the five mice prior to dose 7, and at 1 h and 6 h post-dose. Average plasma levels of the test compound were 9.1±7.6 μM (pre-dose), 18.6±7.2 μM (1 h), and 15.0±4.2 μM (6 h). Compound 1 attained 5/5 cures as determined by the absence of detectable parasitemia in any of the treated mice 60 days post-infection (FIG. 1)."}, "[4]": {"assay": "Metabolic stability in mouse liver microsomes", "type": "in vitro ADME", "description": "Metabolic stability was evaluated using liver microsomes derived from mouse and human sources. Microsomal incubations were carried out according to a protocol described previously (Wang et al., Antimicrob. Agents Chemother. 54:2507 (2010)) with modifications. Briefly, substrate stock solutions were prepared in DMSO and DMSO content was kept at 0.5% (v/v) in final incubations. Incubation mixtures ([…]), liver microsomes (0.5 mg/mL) from mouse (pool of 1000, CD-1 male mouse) or human (pool of 50, mixed gender) (XenoTech LLC, Lenexa, Kans.) in a phosphate buffer (100 mM, pH 7.4) containing 3.3 mM MgCl2. After a 5-minute pre-equilibration period at 37° C., reactions (in triplicate) were initiated by adding the NADPH cofactor (1 mM). For NADPH-independent reactions, the cofactor was replaced with water. Aliquots (10 μl) of the reaction mixtures were removed at 0, 15, 30, and 60 minutes and individually mixed with 200 μL of ice-cold acetonitrile containing internal standard. The mixtures were vortex-mixed, and precipitated protein was removed by centrifugation at 2,250×g for 15 min. The supernatant fractions were dried using a 96-well microplate evaporator (Apricot Designs Inc., Covina, Calif.) under N2 at 50° C. and reconstituted with 100 μL 50% methanol containing 0.1% trifluoroacetic acid before UPLC-MS/MS analysis. In vitro half-life (t1/2) was obtained by analyzing the substrate concentration vs. incubation time curve using the one-phase exponential decay model (GraphPad Prism® 5.0, San Diego, Calif.)."}, "[5]": {"settings": "single oral dose 50 mg/kg, mice, 1 h"}, "[6]": {"settings": "single oral dose 50 mg/kg, mice, 4 h"}, "[7]": {"settings": "single oral dose 50 mg/kg, mice, 8 h"}}, "note": "Where “and” joins values, the source holds several entries; their conditions need not be identical. Identical values can stand only once. Like-named read-outs stand apart in the source and are kept apart here."}
{"smiles": "O=C(Nc1ccc2sc(-c3ccc(F)c(F)c3)nc2c1)N1CC[C@H](F)C1", "note": "[Compound 1, (S)-2-(3,4-Difluorophenyl)-5-(3-fluoro-N-pyrrolidylamido)benzothiazole]", "values": [{"measurement": "Tmax", "setting": "[1]; Mean ± SEM (n = 2)", "result": 5, "unit": "min"}, {"measurement": "Tmax", "setting": "[1]; Rat 2", "result": 5, "unit": "min"}, {"measurement": "Tmax", "setting": "[1]; in vivo, Rat 1, read-out: Tmax (converted)", "result": 5, "unit": "min"}, {"measurement": "AUC(0-inf)", "setting": "[1]; in vivo, Mean ± SEM (n = 2)", "result": 1440}, {"measurement": "AUC(0-inf)", "setting": "[1]; in vivo, Rat 1", "result": 1380}, {"measurement": "AUC(0-inf)", "setting": "[1]; in vivo, Rat 2", "result": 1500}, {"measurement": "Cmax", "setting": "[1]; Mean ± SEM (n = 2)", "result": 11.7, "unit": "µM"}, {"measurement": "half-life", "setting": "[1]; Mean ± SEM (n = 2), read-out: Apparent T1/2 (min) for steady state", "result": 96.7, "unit": "min"}, {"measurement": "half-life", "setting": "[1]; Mean ± SEM (n = 2), read-out: Apparent T1/2 (min) for terminal phase", "result": 96.7, "unit": "min"}, {"measurement": "clearance", "setting": "[1]; Mean ± SEM (n = 2), read-out: Plasma CL", "result": 9.35, "unit": "mL/min/kg"}, {"measurement": "Vd", "setting": "[1]; Mean ± SEM (n = 2), read-out: Plasma Vz", "result": 0.76, "unit": "L/kg"}, {"measurement": "Vd", "setting": "[1]; Mean ± SEM, read-out: Plasma Vss", "result": 1.31, "unit": "L/kg"}, {"measurement": "Cmax", "setting": "[1]; Rat 1", "result": 12.1, "unit": "µM"}, {"measurement": "half-life", "setting": "[1]; Rat 1, read-out: Apparent T1/2 (min) for steady state", "result": 88.5, "unit": "min"}, {"measurement": "half-life", "setting": "[1]; Rat 1, read-out: Apparent T1/2 (min) for terminal phase", "result": 88.5, "unit": "min"}, {"measurement": "clearance", "setting": "[1]; Rat 1, read-out: Plasma CL", "result": 10.3, "unit": "mL/min/kg"}, {"measurement": "Vd", "setting": "[1]; Rat 1, read-out: Plasma Vss", "result": 1.32, "unit": "L/kg"}, {"measurement": "Vd", "setting": "[1]; Rat 1, read-out: Plasma Vz", "result": 0.882, "unit": "L/kg"}, {"measurement": "Cmax", "setting": "[1]; Rat 2", "result": 11.3, "unit": "µM"}, {"measurement": "half-life", "setting": "[1]; Rat 2, read-out: Apparent T1/2 (min) for steady state", "result": 105, "unit": "min"}, {"measurement": "half-life", "setting": "[1]; Rat 2, read-out: Apparent T1/2 (min) for terminal phase", "result": 105, "unit": "min"}, {"measurement": "clearance", "setting": "[1]; Rat 2, read-out: Plasma CL", "result": 8.38, "unit": "mL/min/kg"}, {"measurement": "Vd", "setting": "[1]; Rat 2, read-out: Plasma Vss", "result": 1.3, "unit": "L/kg"}, {"measurement": "Vd", "setting": "[1]; Rat 2, read-out: Plasma Vz", "result": 0.639, "unit": "L/kg"}, {"measurement": "AUC0 min-∞, brain", "setting": "[2]; mouse, in vivo, po, 50 mg/kg", "result": "43116.8 ± 2304", "unit": "µM·min"}, {"measurement": "AUC0 min-∞, plasma", "setting": "[2]; mouse, in vivo, po, 50 mg/kg", "result": "10798 ± 1975", "unit": "µM·min"}, {"measurement": "[compd]Brain", "setting": "[2]; mouse, in vivo, po, 50 mg/kg", "result": "sub-micromolar"}, {"measurement": "Brain/plasma ratio", "setting": "[2]; [5]", "result": 1.48}, {"measurement": "[compd]Brain", "setting": "[2]; [5]", "result": "38.23 ± 13.51", "unit": "µM"}, {"measurement": "[compd]Plasma", "setting": "[2]; [5]", "result": "27.14 ± 9.91", "unit": "µM"}, {"measurement": "Brain/plasma ratio", "setting": "[2]; [6]", "result": 4.43}, {"measurement": "[compd]Brain", "setting": "[2]; [6]", "result": "45.2 ± 10.4", "unit": "µM"}, {"measurement": "[compd]Plasma", "setting": "[2]; [6]", "result": "10.25 ± 2.21", "unit": "µM"}, {"measurement": "Brain/plasma ratio", "setting": "[2]; [7]", "result": 5.48}, {"measurement": "[compd]Brain", "setting": "[2]; [7]", "result": "48.08 ± 2.47", "unit": "µM"}, {"measurement": "[compd]Plasma", "setting": "[2]; [7]", "result": "8.97 ± 1.05", "unit": "µM"}, {"measurement": "EC50", "setting": "Leishmania amazonensis", "result": "> 10", "unit": "µM"}, {"measurement": "mice cured (cures)", "setting": "T. b. brucei TREU667", "result": "5 of 5 and 5/5"}, {"measurement": "Average plasma levels", "setting": "[3]; 1 h post dose 7", "result": "18.6 ± 7.2", "unit": "µM"}, {"measurement": "Average plasma levels", "setting": "[3]; 6 h post dose 7", "result": "15.0 ± 4.2", "unit": "µM"}, {"measurement": "Average plasma levels", "setting": "[3]; prior to dose 7 (pre-dose)", "result": "9.1 ± 7.6", "unit": "µM"}, {"measurement": "Microsome t1/2 (min) Mouse", "setting": "[4]; Table 5", "result": ">60", "unit": "min"}, {"measurement": "Mouse microsomes, percentage of compound remaining", "setting": "[4]; Table 12, after 60 min (where t1/2 > 60 min)", "result": 73, "unit": "%"}, {"measurement": "half-life at 3 μM", "setting": "[4]; male, CD-1, liver microsomes, pH 7.4, mouse microsomes, read-out: microsomal half-life", "result": "> 1", "unit": "h"}, {"measurement": "half-life at 1.5 μM", "setting": "[4]; male, CD-1, mouse, liver microsomes, pH 7.4, Table 12, 37° C., NADPH (1 mM), microsomes 0.5 mg/mL, test compounds 1.5 μM, read-out: Mouse microsomes t1/2", "result": "> 1", "unit": "h"}]}
